Test results reported in publication PMC6545112 (Journal of medicinal chemistry, 2018).
“Also recorded” adds a separate entry of the source. Where two headings read alike, the source gives them in different places.

What was measured:
[1] = tested on: RS4;11 cell line; assay: cell growth inhibition, WST-8 assay, RS4; type: cell-based, human; details: for IC50: read-out: IC50 (nM) in inhibition of cell growth in the RS4;11 cell line, 4 days, WST-8 assay
[2] = molecular target: MDM2 and p53 proteins in RS4;11 cells (Homo sapiens, UniProt Q00987); assay: western blotting analysis of MDM2 and p53 proteins in RS4; type: cell-based; details: 2 h treatment; for effect on MDM2 and p53 protein levels (western blotting): RS4;11 cells
MDM2 and p53 proteins in RS4;11 cells, sequence (Q00987 whole entry): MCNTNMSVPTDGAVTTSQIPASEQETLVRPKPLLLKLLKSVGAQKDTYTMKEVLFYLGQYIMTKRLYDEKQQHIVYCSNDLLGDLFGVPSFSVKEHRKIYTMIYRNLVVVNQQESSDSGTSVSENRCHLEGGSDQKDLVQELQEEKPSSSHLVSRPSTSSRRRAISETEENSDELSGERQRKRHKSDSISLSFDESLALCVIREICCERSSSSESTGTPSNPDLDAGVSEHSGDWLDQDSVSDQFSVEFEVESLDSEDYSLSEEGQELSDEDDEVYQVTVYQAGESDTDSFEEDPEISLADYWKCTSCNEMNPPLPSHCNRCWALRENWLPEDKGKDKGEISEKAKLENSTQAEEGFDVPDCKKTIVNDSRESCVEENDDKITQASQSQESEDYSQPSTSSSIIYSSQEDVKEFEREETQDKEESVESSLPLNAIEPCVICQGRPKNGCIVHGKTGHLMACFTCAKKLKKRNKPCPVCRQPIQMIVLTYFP

Molecule | effect on MDM2 and p53 protein levels (western blotting) [2] | also measured
O=C1CCC(N2C(=O)c3cccc(NCCCCNC(=O)c4ccc(NC(=O)[C@@H]5NC6(CCCCC6)[C@@]6(C(=O)Nc7cc(Cl)ccc76)[C@H]5c5cccc(Cl)c5F)cc4)c3C2=O)C(=O)N1 (some centres unmarked) [Compound 1, (3’R,4’S,5’R)-6”-Chloro-4’-(3-Chloro-2-fluorophenyl)-N-(4-((4-((2-(2,6-dioxopiperidin-3-yl)-1,3-dioxoisoindolin-4-yl)amino)butyl)carbamoyl)phenyl)-2”-oxodispiro[cyclohexane-1,2’-pyrrolidine-3’,3”-indoline]-5’-carboxamide] | effectively reduce the level of MDM2 protein | times more potent than MI-1061 and MI-1242 in inhibition of cell growth ([1]; RS4;11): about 10 times; concentration that reduces/depletes MDM2 protein ([2]; RS4;11 / leukemia cells): 3 nM
(3’R,4’S,5’R)-6”-Chloro-4’-(3-chloro-2-fluorophenyl)-N-(4-((4-((2-(2,6-dioxopiperidin-3-yl)-1-oxoisoindolin-4-yl)amino)butyl)carbamoyl)phenyl)-2”-oxodispiro[cyclohexane-1,2’-pyrrolidine-3’,3”-indoline]-5’-carboxamide [Compound 12] | – | times more potent than 1 in inhibition of cell growth ([1]; RS4;11): twice as potent as 1; IC50 [1]: 5 ± 5 nM
(3’R,4’S,5’R)-6”-Chloro-4’-(3-chloro-2-fluorophenyl)-N-(4-((2-(2,6-dioxopiperidin-3-yl)-1-oxoisoindolin-4-yl)carbamoyl)phenyl)-2”-oxodispiro[cyclohexane-1,2’-pyrrolidine-3’,3”-indoline]-5’-carboxamide [Compound 3] | fails to induce MDM2 degradation | IC50 [1]: 68.4 ± 36 nM
O=C1CCC(N2C(=O)c3cccc(NCCNC(=O)c4ccc(NC(=O)[C@@H]5NC6(CCCCC6)[C@@]6(C(=O)Nc7cc(Cl)ccc76)[C@H]5c5cccc(Cl)c5F)cc4)c3C2=O)C(=O)N1 (some centres unmarked) [Compound 4, (3’R,4’S,5’R)-6”-Chloro-4’-(3-Chloro-2-fluorophenyl)-N-(4-((2-((2-(2,6-dioxopiperidin-3-yl)-1,3-dioxoisoindolin-4-yl)amino)ethyl)carbamoyl)phenyl)-2”-oxodispiro[cyclohexane-1,2’-pyrrolidine-3’,3”-indoline]-5’-carboxamide] | induce degradation of MDM2 and accumulation of p53 | –
O=C1CCC(N2C(=O)c3cccc(NCCOCCOCCOCCNC(=O)c4ccc(NC(=O)[C@@H]5NC6(CCCCC6)[C@@]6(C(=O)Nc7cc(Cl)ccc76)[C@H]5c5cccc(Cl)c5F)cc4)c3C2=O)C(=O)N1 (some centres unmarked) [Compound 10, (3’R,4’S,5’R)-6”-Chloro-4’-(3-Chloro-2-fluorophenyl)-N-(4-((2-(2-(2-(2-((2-(2,6-dioxopiperidin-3-yl)-1,3-dioxoisoindolin-4-yl)amino)ethoxy)ethoxy)ethoxy)-ethyl)carbamoyl)phenyl)-2”-oxodispiro[cyclohexane-1,2’-pyrrolidine-3’,3”-indoline]-5’-carboxamide] | effectively induce degradation of MDM2 and accumulation of p53 | IC50 ([1]; Homo sapiens, RS4-11, 96 h): 4.5 nM
O=C1CCC(N2C(=O)c3cccc(NCCCNC(=O)c4ccc(NC(=O)[C@@H]5NC6(CCCCC6)[C@@]6(C(=O)Nc7cc(Cl)ccc76)[C@H]5c5cccc(Cl)c5F)cc4)c3C2=O)C(=O)N1 (some centres unmarked) [Compound 5, (3’R,4’S,5’R)-6”-Chloro-4’-(3-Chloro-2-fluorophenyl)-N-(4-((3-((2-(2,6-dioxopiperidin-3-yl)-1,3-dioxoisoindolin-4-yl)amino)propyl)carbamoyl)phenyl)-2”-oxodispiro[cyclohexane-1,2’-pyrrolidine-3’,3”-indoline]-5’-carboxamide] | induce degradation of MDM2 and accumulation of p53 | –
O=C1CCC(N2C(=O)c3cccc(CCCCCNC(=O)c4ccc(NC(=O)[C@@H]5NC6(CCCCC6)[C@@]6(C(=O)Nc7cc(Cl)ccc76)[C@H]5c5cccc(Cl)c5F)cc4)c3C2=O)C(=O)N1 (some centres unmarked) [Compound 11, (3’R,4’S,5’R)-6”-Chloro-4’-(3-Chloro-2-fluorophenyl)-N-(4-((5-(2-(2,6-dioxopiperidin-3-yl)-1,3-dioxoisoindolin-4-yl)pentyl)carbamoyl)phenyl)-2”-oxodispiro[cyclohexane-1,2’-pyrrolidine-3’,3”-indoline]-5’-carboxamide] | – | times less potent than 1 in inhibition of cell growth ([1]; RS4;11): 3 times
O=C1CCC(N2C(=O)c3cccc(NCCOCCOCCNC(=O)c4ccc(NC(=O)[C@@H]5NC6(CCCCC6)[C@@]6(C(=O)Nc7cc(Cl)ccc76)[C@H]5c5cccc(Cl)c5F)cc4)c3C2=O)C(=O)N1 (some centres unmarked) [Compound 2, (3’R,4’S,5’R)-6”-Chloro-4’-(3-Chloro-2-fluorophenyl)-N-(4-((2-(2-(2-((2-(2,6-dioxopiperidin-3-yl)-1,3-dioxoisoindolin-4-yl)amino)ethoxy)ethoxy)-ethyl)carbamoyl)phenyl)-2”-oxodispiro[cyclohexane-1,2’-pyrrolidine-3’,3”-indoline]-5’-carboxamide] | effectively reduce the level of MDM2 protein; also recorded: effectively induce degradation of MDM2 and accumulation of p53 | times more potent than MI-1061 and MI-1242 in inhibition of cell growth ([1]; RS4;11): about 10 times
CNC(=O)c1ccc(NC(=O)[C@@H]2NC3(CCCCC3)[C@@]3(C(=O)Nc4cc(Cl)ccc43)[C@H]2c2cccc(Cl)c2F)cc1 [MI-1242] | inducing accumulation of both MDM2 and p53 | –
O=C1CCC(N2C(=O)c3cccc(NCCCCCNC(=O)c4ccc(NC(=O)[C@@H]5NC6(CCCCC6)[C@@]6(C(=O)Nc7cc(Cl)ccc76)[C@H]5c5cccc(Cl)c5F)cc4)c3C2=O)C(=O)N1 (some centres unmarked) [Compound 6, (3’R,4’S,5’R)-6”-Chloro-4’-(3-Chloro-2-fluorophenyl)-N-(4-((5-((2-(2,6-dioxopiperidin-3-yl)-1,3-dioxoisoindolin-4-yl)amino)pentyl)carbamoyl)phenyl)-2”-oxodispiro[cyclohexane-1,2’-pyrrolidine-3’,3”-indoline]-5’-carboxamide] | induce degradation of MDM2 and accumulation of p53 | –
O=C1CCC(N2Cc3c(C#CCCCNC(=O)c4ccc(NC(=O)[C@H]5NC6(CCCCC6)[C@]6(C(=O)Nc7cc(Cl)ccc76)[C@@H]5c5cccc(Cl)c5F)cc4)cccc3C2=O)C(=O)N1 (some centres unmarked) [Compound 21, (3’S,4’R,5’S)-6”-Chloro-4’-(3-chloro-2-fluorophenyl)-N-(4-((5-(2-(2,6-dioxopiperidin-3-yl)-1-oxoisoindolin-4-yl)pent-4-yn-1-yl)carbamoyl)phenyl)-2”-oxodispiro[cyclohexane-1,2’-pyrrolidine-3’,3”-indoline]-5’-carboxamide] | fails to induce any MDM2 degradation | activity in inhibition of cell growth (in words) ([1]; RS4;11): minimal activity
CN1C(=O)CCC(N2Cc3c(C#CCCCNC(=O)c4ccc(NC(=O)[C@@H]5NC6(CCCCC6)[C@@]6(C(=O)Nc7cc(Cl)ccc76)[C@H]5c5cccc(Cl)c5F)cc4)cccc3C2=O)C1=O (some centres unmarked) [Compound 22, (3’R,4’S,5’R)-6”-Chloro-4’-(3-chloro-2-fluorophenyl)-N-(4-((5-(2-(1-methyl-2,6-dioxopiperidin-3-yl)-1-oxoisoindolin-4-yl)pent-4-yn-1-yl)carbamoyl)phenyl)-2”-oxodispiro[cyclohexane-1,2’-pyrrolidine-3’,3”-indoline]-5’-carboxamide] | completely inactive in inducing MDM2 degradation | times less potent than MD-224 in inhibition of cell growth ([1]; RS4;11): > 100 times
O=C1CCC(N2C(=O)c3cccc(NCCCCCCNC(=O)c4ccc(NC(=O)[C@@H]5NC6(CCCCC6)[C@@]6(C(=O)Nc7cc(Cl)ccc76)[C@H]5c5cccc(Cl)c5F)cc4)c3C2=O)C(=O)N1 (some centres unmarked) [Compound 7, (3’R,4’S,5’R)-6”-Chloro-4’-(3-Chloro-2-fluorophenyl)-N-(4-((6-((2-(2,6-dioxopiperidin-3-yl)-1,3-dioxoisoindolin-4-yl)amino)hexyl)carbamoyl)phenyl)-2”-oxodispiro[cyclohexane-1,2’-pyrrolidine-3’,3”-indoline]-5’-carboxamide] | induce degradation of MDM2 and accumulation of p53 | –
O=C1CCC(N2C(=O)c3cccc(NCCOCCNC(=O)c4ccc(NC(=O)[C@@H]5NC6(CCCCC6)[C@@]6(C(=O)Nc7cc(Cl)ccc76)[C@H]5c5cccc(Cl)c5F)cc4)c3C2=O)C(=O)N1 (some centres unmarked) [Compound 9, (3’R,4’S,5’R)-6”-Chloro-4’-(3-Chloro-2-fluorophenyl)-N-(4-((2-(2-((2-(2,6-dioxopiperidin-3-yl)-1,3-dioxoisoindolin-4-yl)amino)ethoxy)ethyl)carbamoyl)phenyl)-2”-oxodispiro[cyclohexane-1,2’-pyrrolidine-3’,3”-indoline]-5’-carboxamide] | effectively induce degradation of MDM2 and accumulation of p53 | –
(3’R,4’S,5’R)-6”-Chloro-4’-(3-Chloro-2-fluorophenyl)-N-(4-((5-(2-(2,6-dioxopiperidin-3-yl)-1-oxoisoindolin-5-yl)pent-4-yn-1-yl)carbamoyl)phenyl)-2”-oxodispiro[cyclohexane-1,2’-pyrrolidine-3’,3”-indoline]-5’-carboxamide [Compound 16] | effectively induce degradation of MDM2 and accumulation of p53 | times less potent than MD-224 in inhibition of cell growth ([1]; RS4;11): 3 times; IC50 [1]: 5 ± 2 nM
O=C1CCC(N2Cc3c(C#CCCNC(=O)c4ccc(NC(=O)[C@@H]5NC6(CCCCC6)[C@@]6(C(=O)Nc7cc(Cl)ccc76)[C@H]5c5cccc(Cl)c5F)cc4)cccc3C2=O)C(=O)N1 (some centres unmarked) [Compound 15, (3’R,4’S,5’R)-6”-Chloro-4’-(3-chloro-2-fluorophenyl)-N-(4-((4-(2-(2,6-dioxopiperidin-3-yl)-1-oxoisoindolin-4-yl)but-3-yn-1-yl)carbamoyl)phenyl)-2”-oxodispiro[cyclohexane-1,2’-pyrrolidine-3’,3”-indoline]-5’-carboxamide] | – | times less potent than MD-224 in inhibition of cell growth ([1]; RS4;11): 2 times
